Earlier results, collected in patent publication EP1085079A1, “Treatment compositions for fabrics” (THE PROCTER & GAMBLE COMPANY, priority 1999, dated 2001).

SMILES	stability over a wide pH range
O=c1[nH]sc2ccccc12 [Proxel, 1,2-benzisothiazolin-3-one]	4-12
Cn1sc2c(c1=O)CCC2 [Promexal, 2-methyl-4,5-trimethylene-4-isothiazolin-3-one]	4-12
